Source: publication PMC3206013, “Unique Interplay between Sugar and Lipid in Determining the Antigenic Potency of Bacterial Antigens for NKT Cells” (PLoS Biology, 2011)
Positions count from the first letter of the chain named.

What was measured:
Assay in all cases: SPR loading efficiency, L363 Fab on immobilised loaded CD1d
Type in all cases: binding
[1] = molecular target: T1, mCD1d (birA-tag mCD1d/β2m) (Mus musculus, UniProt P11609, V167L); settings: 16 h with 1 µg/ml α-GalCer; WT set at 100%
T1 construct: gene Cd1d1; soluble glycosylated CD1d/β2m heterodimer, birA tag, biotinylated; with Beta-2-microglobulin
T1 sequence (P11609 19-297 V167L): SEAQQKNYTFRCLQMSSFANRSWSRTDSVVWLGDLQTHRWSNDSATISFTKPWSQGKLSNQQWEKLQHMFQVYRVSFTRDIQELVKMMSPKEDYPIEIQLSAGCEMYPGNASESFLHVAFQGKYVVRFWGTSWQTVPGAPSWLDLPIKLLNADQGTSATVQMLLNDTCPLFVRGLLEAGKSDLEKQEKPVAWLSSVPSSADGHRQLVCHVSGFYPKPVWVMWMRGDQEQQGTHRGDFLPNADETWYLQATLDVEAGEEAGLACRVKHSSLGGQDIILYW
T1 sequence (P01887 21-119 partner): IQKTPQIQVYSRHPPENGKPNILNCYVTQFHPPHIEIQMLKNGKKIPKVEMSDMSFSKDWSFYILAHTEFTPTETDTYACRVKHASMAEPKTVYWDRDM

[2] = molecular target: T2, mCD1d (birA-tag mCD1d/β2m) (Mus musculus, UniProt P11609, L168V); settings: 16 h with 1 µg/ml α-GalCer; WT set at 100%
T2 construct: gene Cd1d1; soluble glycosylated CD1d/β2m heterodimer, birA tag, biotinylated; with Beta-2-microglobulin
T2 sequence (P11609 19-297 L168V): T1 sequence (P11609 19-297 V167L) with L149V, L150V
T2 sequence (P01887 21-119 partner): T1 sequence (P01887 21-119 partner)

[3] = molecular target: T3, mCD1d (birA-tag mCD1d/β2m) (Mus musculus, UniProt P11609, M180A); settings: 16 h with 1 µg/ml α-GalCer; WT set at 100%; printed Met162Ala and M162A, Met62Ala
T3 construct: gene Cd1d1; soluble glycosylated CD1d/β2m heterodimer, birA tag, biotinylated; with Beta-2-microglobulin
T3 sequence (P11609 19-297 M180A): T1 sequence (P11609 19-297 V167L) with L149V, M162A
T3 sequence (P01887 21-119 partner): T1 sequence (P01887 21-119 partner)

[4] = molecular target: T4, mCD1d (birA-tag mCD1d/β2m) (Mus musculus, UniProt P11609, L102F); settings: 16 h with 1 µg/ml α-GalCer; WT set at 100%; lower than WT but never below 65%
T4 construct: gene Cd1d1; soluble glycosylated CD1d/β2m heterodimer, birA tag, biotinylated; with Beta-2-microglobulin
T4 sequence (P11609 19-297 L102F): T1 sequence (P11609 19-297 V167L) with L84F, L149V
T4 sequence (P01887 21-119 partner): T1 sequence (P01887 21-119 partner)

[5] = molecular target: T5, mCD1d (birA-tag mCD1d/β2m) (Mus musculus, UniProt P11609); settings: 16 h with 1 µg/ml α-GalCer; reference set at 100%
T5 construct: gene Cd1d1; soluble glycosylated CD1d/β2m heterodimer, birA tag, biotinylated; with Beta-2-microglobulin
T5 sequence (P11609 19-297): T1 sequence (P11609 19-297 V167L) with L149V
T5 sequence (P01887 21-119 partner): T1 sequence (P01887 21-119 partner)

SMILES: CCCCCCCCCCCCCCCCCCCCCCCCCC(=O)N[C@@H](CO[C@H]1O[C@H](CO)[C@H](O)[C@H](O)[C@H]1O)[C@H](O)[C@H](O)CCCCCCCCCCCCCC [α-GalCer]
- antigen loading efficiency, % of WT [1]: we measured the loading efficiency of α-GalCer on each mutant by surface plasmon resonance
- antigen loading efficiency, % of WT [2]: we measured the loading efficiency of α-GalCer on each mutant by surface plasmon resonance
- antigen loading efficiency, % of WT [3]: Leu84Phe and Met62Ala mutants showed lower levels of antigen loading compared to wild type
- antigen loading efficiency, % of WT [4]: Leu84Phe and Met62Ala mutants showed lower levels of antigen loading compared to wild type
- antigen loading efficiency, % of WT [5]: Relative antigen loading efficiencies by the mCD1d mutants as determined by surface plasmon resonance
